Like-named read-outs stand apart in the source and are kept apart here.
How the values were obtained:
NMDA receptor = conditions: C. Carter et al, J. Pharm Exp. Ther., 247(3), 1222-1232 (1988); cited from earlier work
sigma receptor = biological target: T1, sigma receptor (Rattus norvegicus, UniProt Q9R0C9); experiment: Radioreceptor assay: sigma receptor binding (displacement of [3H]-3-(+)-PPP) in crude rat brain membranes; parameters: species or system male Sprague-Dawley rats
T1 construct: crude membrane preparations were prepared as follows; Brains from male Sprague-Dawley rats; from tissue; host or cells: whole brain of male Sprague-Dawley rats, crude membranes
Experimental: To determine the effects of the compounds in a sigma receptor assay, crude membrane preparations were prepared as follows. Brains from male Sprague-Dawley rats were homogenized in 10 volumes (wt/vol) of 0.32M sucrose, using a Polytron grinder. The homogenate was centrifuged at 900×g for 10 minutes at 4° C. The supernatant was collected and centrifuged at 22,000×X g for 20 minutes at 4° C. The pellet was resuspended in 10 volumes of 50 mM Tris/HCl buffer (pH 7.4) and centrifuged at 22,000×g for 20 minutes at 4° C. The pellet was resuspended in 5 mM Tris/HCl buffer (pH 7.4) to give a final concentration of 250 mg/ml of the crude material. Incubation tubes were prepared in triplicate and contained 0.1 ml of tissue suspension, 2 nM of [^3 H]-(+)-1-propyl-3-(3-hydroxyphenyl)piperidine [^3 H]-3-(+)-PPP, and varying concentrations of the displacing ligand (0.1-1000 nM) in a final volume of 0.5 ml. After a 1 hr incubation at room temperature, the contents of the test tubes were filtered through GS filter paper which had been presoaked for at least 2 hours in 0.05% polyethyleneimine. The test tubes were rinsed three times with Tris/HCl buffer. Radioactivity on the filters was determined using liquid scintillation spectrometry and inhibition curves were calculated according to the method of Cheng and Prusoff [Biochem. Pharmacol., 22, 3099-3108 (1973)].

[1] = system: N-allylnormetazocine-induced stereotyped behavior; experiment: Blockade of agonist (N-allylnormetazocine)-induced stereotyped behavior and ataxia; assay type: in vivo; conditions: ip, N-allylnormetazocine 15 mg/kg i.p.
Experimental: Compounds of the invention were evaluated for their ability to block the effects of N-allylnormetazocine on the induction of stereotyped behavior and ataxia. To test for antagonism, drugs are administered at varying times before i.p. administration of 15 mg/kg of N-allylnormetazocine. Behavioral and ataxia ratings are taken at 2.5 minutes, 5 minutes, and every 5 minutes thereafter until the animal returns to control behavior. […] The lowest dose of the test compound which is capable of blocking the stereotyped behavior and ataxia induced by N-allylnormetazocine was determined.

[2] = [3H]-3-(+)-PPP 2 nM, rat brain crude membranes, 1 hr, room temperature, ± SEM, Table II, read-out: Ki apparent (units ± SEM)
[3] = test compound i.p. (route given for the 1 mg/kg dose), read-out: dose which fully blocked N-allylnormetazocine-induced stereotyped behavior (lowest dose capable of blocking)

T1 sequence (Q9R0C9 whole entry): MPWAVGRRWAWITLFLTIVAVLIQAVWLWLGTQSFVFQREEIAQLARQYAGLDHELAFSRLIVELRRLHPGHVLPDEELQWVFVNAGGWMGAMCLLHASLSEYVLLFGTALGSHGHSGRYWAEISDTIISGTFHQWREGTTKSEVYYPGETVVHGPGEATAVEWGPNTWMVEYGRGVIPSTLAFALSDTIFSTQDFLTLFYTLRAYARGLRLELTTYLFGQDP

Molecule	Ki (sigma receptor; [2])	minimal effective dose [1, 3]	Ki (sigma receptor)	other results
1-(4-chlorophenyl)-2-[1-(4-fluorophenyl)piperidinyl]ethanol				found to be non-competitive NMDA receptor antagonists (NMDA receptor): non-competitive NMDA receptor antagonists
c1ccc2c(c1)C1CCC2C(N2CCCCC2)C1 (centres unmarked) [Compound No. 1, 1-(2-Benzobicyclo[2.2.2]octenyl)piperidine]	137 ± 9 nM			
c1ccc2c(c1)C1CCC2C(CN2CCCCC2)C1 (centres unmarked) [Compound No. 2, 1-(2-Benzobicyclo[2.2.2]octenyl)methylpiperidine]	11 ± 6 nM	3 mg/kg		
CN1CCN(CC2CC3CCC2c2ccccc23)CC1 (centres unmarked) [Compound No. 3, 1-(2-Benzobicyclo[2.2.2]octenyl)methyl-4-methylpiperazine]	4 ± 2 nM	1 mg/kg		
CN1CCN(C2CC3CCC2c2ccccc23)CC1 (centres unmarked) [Compound No. 4, 1-(2-benzobicyclo[2.2.2]octenyl)-4-methylpiperazine]	170 ± 40 nM			
c1ccc2c(c1)C1CC(CN3CCCCC3)C2C1 (centres unmarked) [Compound No. 5, 1-(2-Benzobicyclo[2.2.1]heptenyl)methylpiperidine]		1 mg/kg	9 ± 4 nM	
c1ccc2c(c1)C1CC2C(N2CCCCC2)C1 (centres unmarked) [Compound No. 6, 1-(2-Benzobicyclo[2.2.1]heptenyl)piperidine]			0.075 ± 0.06 nM	minimal effective dose ([1]; read-out: dose which blocked these same responses (N-allylnormetazocine-induced stereotyped behavior; not stated as fully)): 10 mg/kg
CN1CCN(CC2CC3CC2c2ccccc23)CC1 (centres unmarked) [Compound No. 7, 1-(2-benzobicyclo[2.2.1]-heptenyl)methyl-4-methylpiperazine]			22000 ± 2000 nM	
CN1CCN(C2CC3CC2c2ccccc23)CC1 (centres unmarked) [Compound No. 8, 1-(2-Benzobicyclo[2.2.1]heptenyl)-4-methylpiperazine]			943 ± 3 nM	
CC(C(O)c1ccc(O)cc1)N1CCC(Cc2ccccc2)CC1 (centres unmarked) [ifenprodil]				found to be non-competitive NMDA receptor antagonists (NMDA receptor): non-competitive NMDA receptor antagonists

From patent US5089506A, “Ethanobicyclic amine derivatives for CNS disorders” (G. D. Searle & Co., priority 1990, dated 1992)
